Reference: patent publication US20200347043A1, “MODULATORS OF THE INTEGRATED STRESS PATHWAY” (Calico Life Sciences LLC, priority 2019, published 2020)
pEC50: −log10 of the molar value.

system: HEK293T cells carrying the ATF4 luciferase reporter; test: ATF4-Luc assay (in vitro model of VWMD); type: cell-based, human; conditions: Homo sapiens, HEK-293T, 1 μg/mL tunicamycin, 7 hours, One Glo luminescence
Outline: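 Tunicamycin (1 μg/mL) stress with co-added compound for 7 hours in HEK293T cells stably carrying an ATF4 5′-UTR–luciferase reporter. EC50 values come from the luminescent signal (One Glo).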

Structure (SMILES) | pEC50
O=C(N[C@H]1CC[C@H](C(=O)NCc2ccc(C(F)(F)F)cn2)CC1)[C@@H]1C[C@@H](O)c2cc(Cl)ccc2O1 [Compound 172, (2S,4R)-6-chloro-4-hydroxy-N-[trans-4-({[5-(trifluoromethyl)pyridin-2-yl]methyl}carbamoyl)cyclohexyl]-3,4-dihydro-2H-1-benzopyran-2-carboxamide] | 7.30 to 8.00
O=C1C[C@H](C(=O)N[C@H]2CC[C@H](C(=O)N3CC(c4ccc(Cl)cc4)C3)CC2)Oc2ccc(Cl)cc21 [Compound 173, (2R)-6-chloro-N-{trans-4-[3-(4-chlorophenyl)azetidine-1-carbonyl]cyclohexyl}-4-oxo-3,4-dihydro-2H-1-benzopyran-2-carboxamide] | 7.30 to 8.00
O=C(N[C@H]1CC[C@H](C(=O)N2CC(c3ccc(Cl)cc3)C2)CC1)[C@H]1C[C@@H](O)c2cc(Cl)ccc2O1 [Compound 174, (2R,4R)-6-chloro-N-{trans-4-[3-(4-chlorophenyl)azetidine-1-carbonyl]cyclohexyl}-4-hydroxy-3,4-dihydro-2H-1-benzopyran-2-carboxamide] | > 8.00
O=C1C[C@@H](C(=O)NC23CC(n4cnc(-c5ccc(F)c(F)c5)c4)(C2)C3)Oc2ccc(Cl)cc21 [Compound 175, (2S)-6-chloro-N-{3-[4-(3,4-difluorophenyl)-1H-imidazol-1-yl]bicyclo[1.1.1]pentan-1-yl}-4-oxo-3,4-dihydro-2H-1-benzopyran-2-carboxamide] | 6.60 to 7.30
O=C1C[C@H](C(=O)NC23CC(n4cnc(-c5ccc(F)c(F)c5)c4)(C2)C3)Oc2ccc(Cl)cc21 [Compound 176, (2R)-6-chloro-N-{3-[4-(3,4-difluorophenyl)-1H-imidazol-1-yl]bicyclo[1.1.1]pentan-1-yl}-4-oxo-3,4-dihydro-2H-1-benzopyran-2-carboxamide] | 7.30 to 8.00
O=C1C[C@@H](C(=O)N[C@@H]2CC[C@@H](c3nnc([C@H]4C[C@@H](OC(F)(F)F)C4)o3)OC2)Oc2ccc(Cl)cc21 [Compound 177, (2S)-6-chloro-4-oxo-N-[(3R,6S)-6-{5-[cis-3-(trifluoromethoxy)cyclobutyl]-1,3,4-oxadiazol-2-yl}oxan-3-yl]-3,4-dihydro-2H-1-benzopyran-2-carboxamide] | 6.60 to 7.30
O=C(N[C@H]1CC[C@H](C(=O)N2CC(c3ccc(Cl)cc3)C2)CC1)[C@@H]1C[C@@H](O)c2cc(Cl)ccc2O1 [Compound 178] | 7.30 to 8.00
O=C1C[C@H](C(=O)NC23CC(N4CCN(c5ccc(Cl)cc5)C4=O)(C2)C3)Oc2ccc(Cl)cc21 [Compound 179, (2R)-6-chloro-N-{3-[3-(4-chlorophenyl)-2-oxoimidazolidin-1-yl]bicyclo[1.1.1]pentan-1-yl}-4-oxo-3,4-dihydro-2H-1-benzopyran-2-carboxamide] | 6.60 to 7.30
O=C(NC12CC(n3cnc(-c4ccc(F)c(F)c4)c3)(C1)C2)[C@@H]1C[C@H](O)c2cc(Cl)ccc2O1 [Compound 180, (2S,4S)-6-chloro-N-{3-[4-(3,4-difluorophenyl)-1H-imidazol-1-yl]bicyclo[1.1.1]pentan-1-yl}-4-hydroxy-3,4-dihydro-2H-1-benzopyran-2-carboxamide] | 6.60 to 7.30
O=C(NC12CC(n3cnc(-c4ccc(F)c(F)c4)c3)(C1)C2)[C@H]1C[C@@H](O)c2cc(Cl)ccc2O1 [Compound 181, (2R,4R)-6-chloro-N-{3-[4-(3,4-difluorophenyl)-1H-imidazol-1-yl]bicyclo[1.1.1]pentan-1-yl}-4-hydroxy-3,4-dihydro-2H-1-benzopyran-2-carboxamide] | > 8.00
O=C(N[C@H]1CC[C@H](C(=O)N2CC(c3ccccc3)C2)CC1)[C@H]1C[C@@H](O)c2cc(Cl)ccc2O1 [Compound 182, (2R,4R)-6-chloro-4-hydroxy-N-[trans-4-(3-phenylazetidine-1-carbonyl)cyclohexyl]-3,4-dihydro-2H-1-benzopyran-2-carboxamide] | < 5.70
O=C(NC12CC(N3CCN(c4ccc(Cl)cc4)C3=O)(C1)C2)[C@H]1C[C@@H](O)c2cc(Cl)ccc2O1 [Compound 183, (2R,4R)-6-chloro-N-{3-[3-(4-chlorophenyl)-2-oxoimidazolidin-1-yl]bicyclo[1.1.1]pentan-1-yl}-4-hydroxy-3,4-dihydro-2H-1-benzopyran-2-carboxamide] | 7.30 to 8.00
O=C1C[C@H](C(=O)N[C@H]2CC[C@H](N3CCN(C4CC(OC(F)(F)F)C4)C3=O)CC2)Oc2ccc(Cl)cc21 (stereo partly drawn) [Compound 188, (2R)-6-chloro-4-oxo-N-[(1r,4R)-4-{2-oxo-3-[3-(trifluoromethoxy)cyclobutyl]imidazolidin-1-yl}cyclohexyl]-3,4-dihydro-2H-1-benzopyran-2-carboxamide] | < 5.70
O=C(CO[C@H]1C[C@@H](OC(F)(F)F)C1)NC12CCC(NC(=O)[C@H]3CC(=O)c4cc(F)c(F)cc4O3)(CC1)CC2 [Compound 189, (2R)-6,7-difluoro-4-oxo-N-[4-(2-{[cis-3-(trifluoromethoxy)cyclobutyl]oxy}acetamido)bicyclo[2.2.2]octan-1-yl]-3,4-dihydro-2H-1-benzopyran-2-carboxamide] | 7.30 to 8.00
O=C(NC12CCC(c3nnc([C@H]4C[C@@H](OC(F)(F)F)C4)o3)(CC1)OC2)[C@@H]1C[C@H](O)c2cc(Cl)ccc2O1 [Compound 190, (2S,4S)-6-chloro-4-hydroxy-N-(1-{5-[cis-3-(trifluoromethoxy)cyclobutyl]-1,3,4-oxadiazol-2-yl}-2-oxabicyclo[2.2.2]octan-4-yl)-3,4-dihydro-2H-1-benzopyran-2-carboxamide] | 6.60 to 7.30
O=C(NC12CCC(c3nnc([C@H]4C[C@@H](OC(F)(F)F)C4)o3)(CC1)OC2)[C@H]1C[C@@H](O)c2cc(Cl)ccc2O1 [Compound 191, (2R,4R)-6-chloro-4-hydroxy-N-(1-{5-[cis-3-(trifluoromethoxy)cyclobutyl]-1,3,4-oxadiazol-2-yl}-2-oxabicyclo[2.2.2]octan-4-yl)-3,4-dihydro-2H-1-benzopyran-2-carboxamide] | > 8.00
O=C(CO[C@H]1C[C@@H](OC(F)(F)F)C1)NC12CCC(NC(=O)[C@H]3CC(=O)c4cc(Cl)ccc4O3)(CC1)CC2 [Compound 192, (2R)-6-chloro-4-oxo-N-[4-(2-{[cis-3-(trifluoromethoxy)cyclobutyl]oxy}acetamido)bicyclo[2.2.2]octan-1-yl]-3,4-dihydro-2H-1-benzopyran-2-carboxamide] | 7.30 to 8.00
O=C(NC12CCC(C(=O)NCc3ccc(C(F)(F)F)cn3)(CC1)CC2)[C@@H]1C[C@@H](O)c2cc(Cl)ccc2O1 [Compound 193, (2S,4R)-6-chloro-4-hydroxy-N-[4-({[5-(trifluoromethyl)pyridin-2-yl]methyl}carbamoyl)bicyclo[2.2.2]octan-1-yl]-3,4-dihydro-2H-1-benzopyran-2-carboxamide] | 6.60 to 7.30
O=C(CO[C@H]1C[C@@H](OC(F)(F)F)C1)NC12CCC(NC(=O)[C@H]3C[C@@H](O)c4cc(F)c(F)cc4O3)(CC1)CC2 [Compound 194, (2R,4R)-6,7-difluoro-4-hydroxy-N-[4-(2-{[cis-3-(trifluoromethoxy)cyclobutyl]oxy}acetamido)bicyclo[2.2.2]octan-1-yl]-3,4-dihydro-2H-1-benzopyran-2-carboxamide] | > 8.00
O=C(CO[C@H]1C[C@@H](OC(F)(F)F)C1)NC12CCC(NC(=O)[C@H]3C[C@@H](O)c4cc(Cl)ccc4O3)(CC1)CC2 [Compound 195, (2R,4R)-6-chloro-4-hydroxy-N-[4-(2-{[cis-3-(trifluoromethoxy)cyclobutyl]oxy}acetamido)bicyclo[2.2.2]octan-1-yl]-3,4-dihydro-2H-1-benzopyran-2-carboxamide] | > 8.00
O=C(CO[C@H]1C[C@@H](OC(F)(F)F)C1)NC12CCC(NC(=O)[C@H]3C[C@@H](O)c4cc(Cl)ccc4O3)(C1)C2 [Compound 196, (2R,4R)-6-chloro-4-hydroxy-N-[4-(2-{[cis-3-(trifluoromethoxy)cyclobutyl]oxy}acetamido)bicyclo[2.1.1]hexan-1-yl]-3,4-dihydro-2H-1-benzopyran-2-carboxamide] | 7.30 to 8.00
O=C(N[C@H]1CC[C@H](N2CCN(C3CC(OC(F)(F)F)C3)C2=O)CC1)[C@H]1C[C@@H](O)c2cc(Cl)ccc2O1 (stereo partly drawn) [Compound 197] | < 5.70
O=C(N[C@H]1CC[C@H](C(=O)NCc2ccc(C(F)(F)F)cn2)CC1)[C@H]1C[C@H](O)c2cc(Cl)ccc2O1 [Compound 198, (2R,4S)-6-chloro-4-hydroxy-N-[trans-4-({[5-(trifluoromethyl)pyridin-2-yl]methyl}carbamoyl)cyclohexyl]-3,4-dihydro-2H-1-benzopyran-2-carboxamide] | 6.30 to 6.60
O=C(NC12CC(n3cnc(-c4ccc(C(F)(F)F)nc4)c3)(C1)C2)[C@H]1C[C@@H](O)c2cc(Cl)ccc2O1 [Compound 201, (2R,4R)-6-chloro-4-hydroxy-N-(3-{4-[6-(trifluoromethyl)pyridin-3-yl]-1H-imidazol-1-yl}bicyclo[1.1.1]pentan-1-yl)-3,4-dihydro-2H-1-benzopyran-2-carboxamide] | > 8.00
O=C(NC12CCC(c3nnc([C@H]4C[C@@H](OC(F)(F)F)C4)o3)(CC1)CC2)[C@H]1C[C@@H](O)c2cc(Cl)ccc2O1 [Compound 203, (2R,4R)-6-chloro-4-hydroxy-N-(4-{5-[cis-3-(trifluoromethoxy)cyclobutyl]-1,3,4-oxadiazol-2-yl}bicyclo[2.2.2]octan-1-yl)-3,4-dihydro-2H-1-benzopyran-2-carboxamide] | > 8.00
O=C(NC12CCC(c3nnc([C@H]4C[C@@H](OC(F)(F)F)C4)o3)(CC1)CC2)[C@@H]1C[C@H](O)c2cc(Cl)ccc2O1 [Compound 204, (2S,4S)-6-chloro-4-hydroxy-N-(4-{5-[cis-3-(trifluoromethoxy)cyclobutyl]-1,3,4-oxadiazol-2-yl}bicyclo[2.2.2]octan-1-yl)-3,4-dihydro-2H-1-benzopyran-2-carboxamide] | 7.30 to 8.00
O=C(NC12CCC(C(=O)N[C@H]3C[C@@H](OC(F)(F)F)C3)(CC1)OC2)[C@H]1C[C@@H](O)c2cc(Cl)ccc2O1 [Compound 205, (2R,4R)-6-chloro-4-hydroxy-N-(1-{[cis-3-(trifluoromethoxy)cyclobutyl]carbamoyl}-2-oxabicyclo[2.2.2]octan-4-yl)-3,4-dihydro-2H-1-benzopyran-2-carboxamide] | 6.60 to 7.30
